Results: patent US8946282B2, “Indolin-2-one derivatives as protein kinase inhibitors” (Annji Pharmaceutical Co., Ltd., priority 2012, dated 2015)
pIC50: −log10 of the molar value. Like-named read-outs stand apart in the source and are kept apart here.

What was measured:
aurora B = aurora B (Homo sapiens, UniProt Q96GD4); test: radioisotope-based P81 filter-binding assay, aurora B kinase; type: biochemical; settings: for inhibition at 1 µM: compound at 1.0 μM, mean values (n=2), read-out: percent inhibition of enzyme catalytic activity, Aur B (numbers in parentheses); for pIC50: read-out: Enzyme assay IC50 Aur B
Chain of aurora B (Q96GD4 whole entry): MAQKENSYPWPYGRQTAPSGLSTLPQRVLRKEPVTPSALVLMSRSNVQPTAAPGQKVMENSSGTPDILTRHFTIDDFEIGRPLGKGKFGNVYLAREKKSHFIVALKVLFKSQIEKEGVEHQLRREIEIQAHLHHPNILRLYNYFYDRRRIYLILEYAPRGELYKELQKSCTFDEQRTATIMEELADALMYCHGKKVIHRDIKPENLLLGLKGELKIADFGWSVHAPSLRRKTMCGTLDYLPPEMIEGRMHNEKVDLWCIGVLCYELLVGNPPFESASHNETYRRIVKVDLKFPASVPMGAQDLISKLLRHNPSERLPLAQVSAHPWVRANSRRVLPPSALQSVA
Experimental: (§1) Compounds of formula (I)-(IV) were evaluated for abilities in inhibiting protein kinases aurora B and FLT-3 activity using radioisotope-based P81 filter-binding assay (Table 1).

FLT-3 = target: T1, FLT-3 (Homo sapiens, UniProt P36888); test: radioisotope-based P81 filter-binding assay, FLT-3 kinase; type: biochemical; settings: for pIC50: averaged from two independent dose-response curves, read-out: Enzyme assay IC50 FLT-3
T1 sequence (P36888 27-993): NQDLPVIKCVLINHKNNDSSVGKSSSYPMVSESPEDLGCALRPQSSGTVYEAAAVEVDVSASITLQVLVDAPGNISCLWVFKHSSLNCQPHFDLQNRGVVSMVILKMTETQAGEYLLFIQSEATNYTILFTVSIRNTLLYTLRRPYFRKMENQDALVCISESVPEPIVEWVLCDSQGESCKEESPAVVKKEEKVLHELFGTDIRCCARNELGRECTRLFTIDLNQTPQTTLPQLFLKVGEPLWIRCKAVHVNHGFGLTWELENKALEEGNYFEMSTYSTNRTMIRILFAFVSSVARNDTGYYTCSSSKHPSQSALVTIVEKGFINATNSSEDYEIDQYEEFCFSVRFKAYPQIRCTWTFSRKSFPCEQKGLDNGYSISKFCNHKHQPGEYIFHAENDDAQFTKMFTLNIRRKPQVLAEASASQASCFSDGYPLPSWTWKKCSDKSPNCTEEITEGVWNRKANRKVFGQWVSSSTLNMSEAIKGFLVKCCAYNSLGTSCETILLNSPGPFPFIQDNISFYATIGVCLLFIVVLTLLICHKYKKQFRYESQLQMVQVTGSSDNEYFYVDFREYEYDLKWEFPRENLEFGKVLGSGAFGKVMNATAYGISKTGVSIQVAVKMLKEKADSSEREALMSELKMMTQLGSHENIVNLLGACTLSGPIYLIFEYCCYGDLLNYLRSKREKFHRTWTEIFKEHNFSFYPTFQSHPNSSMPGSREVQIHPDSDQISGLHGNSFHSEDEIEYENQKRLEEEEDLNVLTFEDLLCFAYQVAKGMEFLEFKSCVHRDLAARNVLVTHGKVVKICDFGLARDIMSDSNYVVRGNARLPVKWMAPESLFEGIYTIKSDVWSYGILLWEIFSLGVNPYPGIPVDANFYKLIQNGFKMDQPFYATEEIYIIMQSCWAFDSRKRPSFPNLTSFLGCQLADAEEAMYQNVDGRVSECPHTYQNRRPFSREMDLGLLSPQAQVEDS
Experimental: as §1

[1] = averaged from two independent dose-response curves

melting point	inhibition at 1 µM (aurora B) [%]	inhibition at 1 µM (FLT-3; compound at 1.0 μM, mean values (n=2), read-out: percent inhibition of enzyme catalytic activity, FLT-3 (numbers in parentheses)) [%]	pIC50 (aurora B; [1])	pIC50 (FLT-3)	Compound	pIC50 (aurora B)
278 to 283 °C (dec.)	12.8	6.1	–	–	COc1ccc(C(=O)NC(=O)Nc2ccc3c(c2)NC(=O)/C3=C/c2ccc(Cl)cc2)cc1 [D18, (E)-N-(3-(4-chlorobenzylidene)-2-oxoindolin-6-ylcarbamoyl)-4-methoxybenz-amide]	–
> 300 °C	–	–	8.68	6.42	COc1cc(F)c(C(=O)NC(=O)Nc2cc3c(cc2F)/C(=C/c2[nH]c(C)c(C(=O)O)c2C)C(=O)N3)c(F)c1 [D61]	–
> 300 °C	12.4	–	–	< 6.00	COc1ccc(C(=O)NC(=O)Nc2ccc3c(c2)NC(=O)/C3=C\c2[nH]c(C)c(-c3ccccc3)c2C)cc1 [D43, (Z)—N-(3-((3,5-dimethyl-4-phenyl-1H-pyrrol-2-yl)methylene)-2-oxoindolin-6-ylcarbamoyl)-4-methoxybenzamide]	–
> 300 °C	–	–	5.98	6.24	O=C1Nc2cc(NC(=O)N3CCN(c4ccc(Cl)c(C(F)(F)F)c4)C3=O)ccc2/C1=C/c1ccc[nH]1 [D87, (Z)—N-(3-((1H-pyrrol-2-yl)methylene)-2-oxoindolin-6-yl)-3-(4-chloro-3-(trifluoromethyl)phenyl)-2-oxoimidazolidine-1-carboxamide]	–
–	–	–	8.21	8.54	Cc1[nH]c(/C=C2\C(=O)Nc3cc(NC(=O)c4c[nH]cc(-c5ccc(F)cc5F)c4=O)ccc32)c(C)c1CCC(=O)O [D147, (Z)-3-(5-((6-(5-(2,4-difluorophenyl)-4-oxo-1,4-dihydropyridine-3-carboxamido)-2-oxoindolin-3-ylidene)methyl)-2,4-dimethyl-1H-pyrrol-3-yl)propanoic acid]	–
293 to 298 °C	–	–	7.26	< 6.00	COc1ccc(C(=O)NC(=O)Nc2ccc3c(c2)NC(=O)/C3=C\c2[nH]c(C)cc2C)cc1 [D44, (Z)—N-(3-((3,5-dimethyl-1H-pyrrol-2-yl)methylene)-2-oxoindolin-6-ylcarbamoyl)-4-methoxybenzamide]	–
278 to 283 °C (dec.)	–	–	5.76	5.53	CCOC(=O)c1c(C)[nH]c(/C=C2\C(=O)Nc3cc(NC(=O)NC(=O)c4ccc(OC)cc4F)ccc32)c1C [D62, (Z)-ethyl-5-((6-(3-(2-fluoro-4-methoxybenzoyl)ureido)-2-oxoindolin-3-ylidene)methyl)-2,4-dimethyl-1H-pyrrole-3-carboxylate]	–
–	–	–	7.53	–	COc1ccc(NC(=O)CC(=O)Nc2ccc3c(c2)NC(=O)/C3=C\c2ccc[nH]2)cc1 [D76, (Z)—N^1-(3-((1H-pyrrol-2-yl)methylene)-2-oxoindolin-6-yl)-N^3-(4-methoxyphenyl)malonamide]	–
–	–	–	8.49	6.92	Cc1[nH]c(/C=C2\C(=O)Nc3cc(NC(=O)N4CCN(C5CC5)C4=O)ccc32)c(C)c1CCC(=O)O [D98, (Z)-3-(5-((6-(3-cyclopropyl-2-oxoimidazolidine-1-carboxamido)-2-oxoindolin-3-ylidene)methyl)-2,4-dimethyl-1H-pyrrol-3-yl)propanoic acid]	–
–	–	–	8.92	8.57	COc1ccc(C(=O)NC(=O)Nc2ccc3c(c2)NC(=O)/C3=C\c2[nH]c(C)c(CCC(=O)O)c2C)cc1 [D47, (Z)-3-(5-((6-(3-(4-methoxybenzoyl)ureido)-2-oxoindolin-3-ylidene)methyl)-2,4-dimethyl-1H-pyrrol-3-yl)propanoic acid]	–
–	–	–	6.66	5.42	CCOC(=O)CCc1c(C)[nH]c(/C=C2\C(=O)Nc3cc(NC(=O)NC(=O)c4ccc(OC)cc4F)ccc32)c1C [D63, (Z)-ethyl-3-(5-((6-(3-(2-fluoro-4-methoxybenzoyl)ureido)-2-oxoindolin-3-ylidene)methyl)-2,4-dimethyl-1H-pyrrol-3-yl)propanoate]	–
–	–	–	8.74	< 5.00	O=C1Nc2cc(NC(=O)N3CCN(c4ccccc4F)C3=O)ccc2/C1=C/c1ccc[nH]1 [D90, (Z)—N-(3-((1H-pyrrol-2-yl)methylene)-2-oxoindolin-6-yl)-3-(2-fluorophenyl)-2-oxoimidazolidine-1-carboxamide]	–
270 to 275 °C (dec.)	–	–	–	–	Cc1[nH]c(/C=C2\C(=O)Nc3cc(NC(=O)NC(=O)c4ccc(Cl)c(C(F)(F)F)c4)ccc32)c(C)c1CCC(=O)O (hydrate or solvate) [D37, (Z)-3-(5-((6-(3-(4-chloro-3-(trifluoromethyl)benzoyl)ureido)-2-oxo-indolin-3-ylidene)methyl)-2,4-dimethyl-1H-pyrrol-3-yl)propanoic acid]	–
–	–	–	8.54	6.12	Cc1[nH]c(/C=C2\C(=O)Nc3cc(NC(=O)c4c[nH]cc(-c5ccc(F)cc5)c4=O)ccc32)c(C)c1C(=O)N1CCOCC1 [D152, (Z)—N-(3-((3,5-dimethyl-4-(morpholine-4-carbonyl)-1H-pyrrol-2-yl)methylene)-2-oxoindolin-6-yl)-5-(4-fluorophenyl)-4-oxo-1,4-dihydropyridine-3-carboxamide]	–
–	11.2	–	–	7.24	COc1ccc(C(=O)NC(=O)Nc2cccc3c2/C(=C/c2ccc[nH]2)C(=O)N3)cc1 [D13, (Z)—N-(3-((1H-pyrrol-2-yl)methylene)-2-oxoindolin-4-ylcarbamoyl)-4-methoxybenzamide]	–
–	–	–	7.13	8.57	Cc1[nH]c(/C=C2\C(=O)Nc3cc(NC(=O)c4c[nH]cc(-c5ccc(F)cc5)c4=O)ccc32)c(C)c1CC(=O)N1CCOCC1 [D153, (Z)—N-(3-((3,5-dimethyl-4-(2-morpholino-2-oxoethyl)-1H-pyrrol-2-yl)methylene)-2-oxoindolin-6-yl)-5-(4-fluorophenyl)-4-oxo-1,4-dihydropyridine-3-carboxamide]	–
–	–	–	–	–	COc1ccc(C(=O)NC(=O)Nc2cc3c(cc2F)/C(=C/c2[nH]c(C)c(CCC(=O)O)c2C)C(=O)N3)cc1 [D51, (Z)-3-(5-((5-fluoro-6-(3-(4-methoxybenzoyl)ureido)-2-oxoindolin-3-ylidene)-methyl)-2,4-dimethyl-1H-pyrrol-3-yl)propanoic acid]	8.52
–	–	–	8.36	< 5.00	COc1ccc(N2CCN(C(=O)Nc3ccc4c(c3)NC(=O)/C4=C\c3ccc[nH]3)C2=O)c(F)c1 [D94, (Z)—N-(3-((1H-pyrrol-2-yl)methylene)-2-oxoindolin-6-yl)-3-(2-fluoro-4-methoxyphenyl)-2-oxoimidazolidine-1-carboxamide]	–
–	–	–	8.82	6.04	COc1ccc(C(=O)NC(=O)Nc2cc3c(cc2F)/C(=C/c2[nH]c(C)c(C(=O)O)c2C)C(=O)N3)cc1 [D49]	–
–	–	–	8.89	8.00	COc1ccc(C(=O)NC(=O)Nc2ccc3c(c2)NC(=O)/C3=C\c2[nH]c(C)c(CCC(=O)O)c2C)c(F)c1 [D58, (Z)-3-(5-((6-(3-(2-fluoro-4-methoxybenzoyl)uriedo)-2-oxoindolin-3-ylidene)methyl)-2,4-dimethyl-1H-pyrrol-3-yl)propanoic acid]	–

Compound	melting point	inhibition at 1 µM (aurora B) [%]	inhibition at 1 µM (FLT-3; compound at 1.0 μM, mean values (n=2), read-out: percent inhibition of enzyme catalytic activity, FLT-3 (numbers in parentheses)) [%]	pIC50 (aurora B; [1])	pIC50 (FLT-3)	pIC50 (aurora B)
COc1ccc(C(=O)NC(=O)Nc2cc3c(cc2F)/C(=C/c2[nH]c(C)c(C(=O)O)c2C)C(=O)N3)c(F)c1 [D59, (Z)-5-((5-fluoro-6-(3-(2-fluoro-4-methoxybenzoyl)ureido)-2-oxoindolin-3-ylidene)methyl)-2,4-dimethyl-1H-pyrrole-3-carboxylic acid]	–	–	–	8.52	6.39	–
